Calls of active or inactive are those of the source.
Assays:
[1] = target: Glucose-6-phosphate 1-dehydrogenase (Homo sapiens, UniProt P11413); assay: human G6PD enzyme inhibitors, dose response, selectivity assay for P. falciparum G6PD inhibitor project, biochemical, fluorescence (AID 504792); type: functional
[2] = target: T1, Hexokinase HKDC1 (Homo sapiens, UniProt Q2TB90); assay: HKDC1 hexokinase activators, dose response, biochemical, W721R variant (AID 504730); type: functional
T1 sequence (Q2TB90 whole entry): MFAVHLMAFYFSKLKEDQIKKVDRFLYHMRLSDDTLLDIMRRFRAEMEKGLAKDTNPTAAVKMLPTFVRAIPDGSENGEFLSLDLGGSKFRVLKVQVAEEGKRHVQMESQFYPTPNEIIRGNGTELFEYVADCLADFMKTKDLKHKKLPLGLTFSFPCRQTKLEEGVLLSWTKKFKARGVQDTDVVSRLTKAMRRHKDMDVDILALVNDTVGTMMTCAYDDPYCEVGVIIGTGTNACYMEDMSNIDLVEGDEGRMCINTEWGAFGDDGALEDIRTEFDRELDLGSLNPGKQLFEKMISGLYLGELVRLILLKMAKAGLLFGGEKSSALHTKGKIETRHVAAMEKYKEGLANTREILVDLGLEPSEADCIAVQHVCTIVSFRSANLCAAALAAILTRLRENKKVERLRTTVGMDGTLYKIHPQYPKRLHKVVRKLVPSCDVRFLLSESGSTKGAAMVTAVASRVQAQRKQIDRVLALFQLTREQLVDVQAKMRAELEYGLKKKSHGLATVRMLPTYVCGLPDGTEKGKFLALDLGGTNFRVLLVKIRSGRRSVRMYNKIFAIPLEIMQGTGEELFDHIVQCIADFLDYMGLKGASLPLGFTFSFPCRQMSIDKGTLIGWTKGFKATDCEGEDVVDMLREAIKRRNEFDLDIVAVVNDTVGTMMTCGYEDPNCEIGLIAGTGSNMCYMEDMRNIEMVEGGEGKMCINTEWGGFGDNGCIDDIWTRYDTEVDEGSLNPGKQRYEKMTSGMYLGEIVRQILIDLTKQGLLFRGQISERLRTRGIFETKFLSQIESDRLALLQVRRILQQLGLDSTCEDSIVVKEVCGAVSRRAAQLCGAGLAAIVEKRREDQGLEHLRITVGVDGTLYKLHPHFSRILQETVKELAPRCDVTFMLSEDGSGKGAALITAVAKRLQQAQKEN

[3] = target: Hexokinase-1 (Homo sapiens, UniProt P19367); assay: hexokinase 1 activators, dose response, selectivity assay for HKDC1 activator project, biochemical (AID 504762); type: functional
Hexokinase-1, sequence (P19367 whole entry): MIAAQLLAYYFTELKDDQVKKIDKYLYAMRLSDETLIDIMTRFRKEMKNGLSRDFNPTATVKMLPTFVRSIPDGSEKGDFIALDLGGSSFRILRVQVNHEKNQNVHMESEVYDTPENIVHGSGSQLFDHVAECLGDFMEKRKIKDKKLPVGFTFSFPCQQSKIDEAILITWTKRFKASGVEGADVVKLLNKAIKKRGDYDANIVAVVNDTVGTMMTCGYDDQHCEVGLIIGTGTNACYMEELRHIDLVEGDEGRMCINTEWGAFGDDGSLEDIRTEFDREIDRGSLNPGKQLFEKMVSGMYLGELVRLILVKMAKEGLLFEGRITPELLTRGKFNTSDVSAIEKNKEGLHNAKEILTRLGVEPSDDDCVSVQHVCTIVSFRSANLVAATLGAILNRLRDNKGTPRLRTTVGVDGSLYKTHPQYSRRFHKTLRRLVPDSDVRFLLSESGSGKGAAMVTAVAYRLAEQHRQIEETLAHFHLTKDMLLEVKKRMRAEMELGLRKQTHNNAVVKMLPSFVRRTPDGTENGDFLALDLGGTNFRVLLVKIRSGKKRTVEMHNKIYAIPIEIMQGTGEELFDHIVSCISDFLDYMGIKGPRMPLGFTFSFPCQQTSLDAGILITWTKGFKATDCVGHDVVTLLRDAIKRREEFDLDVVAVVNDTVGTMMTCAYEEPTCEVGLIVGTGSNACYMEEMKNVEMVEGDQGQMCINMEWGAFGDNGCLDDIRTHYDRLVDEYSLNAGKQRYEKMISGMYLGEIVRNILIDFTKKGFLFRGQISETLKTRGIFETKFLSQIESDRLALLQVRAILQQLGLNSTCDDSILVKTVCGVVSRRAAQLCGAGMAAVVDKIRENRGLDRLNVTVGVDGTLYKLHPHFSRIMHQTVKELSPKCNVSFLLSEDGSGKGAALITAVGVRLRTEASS

[4] = target: T2, G-protein coupled receptor 35 (Homo sapiens, UniProt Q9HC97); assay: SAR analysis of Agonists of the GPR35 Receptor using an Image-Based Assay - Set 4. [Related pubchem assays (depositor defined):AID2013, AID2026]; type: functional
T2 sequence (Q9HC97 whole entry): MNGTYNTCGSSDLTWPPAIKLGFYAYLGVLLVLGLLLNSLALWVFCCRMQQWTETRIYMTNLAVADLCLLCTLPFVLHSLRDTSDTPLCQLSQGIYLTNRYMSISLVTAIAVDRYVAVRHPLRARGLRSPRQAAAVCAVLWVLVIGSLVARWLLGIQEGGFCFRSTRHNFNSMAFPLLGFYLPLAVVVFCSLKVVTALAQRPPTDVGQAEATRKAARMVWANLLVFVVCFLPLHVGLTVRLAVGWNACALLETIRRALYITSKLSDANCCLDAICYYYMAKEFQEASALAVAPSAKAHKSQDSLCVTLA

[5] = target: T3, Cannabinoid receptor 1 (Homo sapiens, UniProt P21554); assay: SAR analysis of agonists of the Cannabinoid Receptor 1 using an Image-Based Assay - Set 4. [Related pubchem assays (depositor defined):AID2013, AID2026]; type: functional
T3 sequence (P21554 whole entry): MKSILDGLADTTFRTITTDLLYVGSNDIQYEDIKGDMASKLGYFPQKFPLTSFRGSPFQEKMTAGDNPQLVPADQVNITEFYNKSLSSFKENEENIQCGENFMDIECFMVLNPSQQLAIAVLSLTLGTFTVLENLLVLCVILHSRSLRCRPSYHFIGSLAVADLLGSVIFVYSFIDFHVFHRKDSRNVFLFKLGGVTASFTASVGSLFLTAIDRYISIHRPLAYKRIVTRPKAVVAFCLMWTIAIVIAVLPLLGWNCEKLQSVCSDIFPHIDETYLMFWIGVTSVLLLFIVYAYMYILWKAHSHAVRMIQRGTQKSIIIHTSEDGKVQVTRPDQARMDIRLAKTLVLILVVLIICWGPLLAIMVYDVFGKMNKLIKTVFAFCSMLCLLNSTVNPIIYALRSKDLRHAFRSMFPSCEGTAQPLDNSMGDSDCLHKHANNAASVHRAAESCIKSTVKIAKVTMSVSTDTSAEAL

[6] = target: T2, G-protein coupled receptor 35; assay: SAR analysis of Antagonists of the GPR35 Receptor using an Image-Based Assay - Set 6. [Related pubchem assays (depositor defined):AID2013, AID2026]; type: functional
[7] = target: T3, Cannabinoid receptor 1; assay: SAR analysis of antagonists of the Cannabinoid Receptor 1 using an Image-Based Assay - Set 4. [Related pubchem assays (depositor defined):AID2013, AID2026]; type: functional
[8] = target: G-protein coupled receptor 55 (Homo sapiens, UniProt Q9Y2T6); assay: SAR Analysis of Selective Antagonists of GPR55 using an Image-Based Assay - Set 4. [Related pubchem assays (depositor defined):AID2013, AID2026]; type: functional;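 further: antagonism of response to 5 µM lysophosphatidylinositol agonist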
G-protein coupled receptor 55, sequence (Q9Y2T6 whole entry): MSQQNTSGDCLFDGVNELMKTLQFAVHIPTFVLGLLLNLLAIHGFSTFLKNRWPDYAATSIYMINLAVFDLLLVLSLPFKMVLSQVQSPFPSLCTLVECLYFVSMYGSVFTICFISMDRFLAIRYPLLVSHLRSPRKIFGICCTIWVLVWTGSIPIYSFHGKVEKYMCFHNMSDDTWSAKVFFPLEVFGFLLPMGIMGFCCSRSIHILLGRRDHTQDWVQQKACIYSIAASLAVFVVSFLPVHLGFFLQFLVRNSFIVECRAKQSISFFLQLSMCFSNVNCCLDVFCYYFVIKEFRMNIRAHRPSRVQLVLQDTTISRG

[9] = target: T4, Cannabinoid receptor 2 (Homo sapiens, UniProt P34972); assay: SAR analysis of antagonists of the Cannabinoid Receptor 2 using an Image-Based Assay - Set 3. [Related pubchem assays (depositor defined):AID2013, AID2026]; type: functional
T4 sequence (P34972 whole entry): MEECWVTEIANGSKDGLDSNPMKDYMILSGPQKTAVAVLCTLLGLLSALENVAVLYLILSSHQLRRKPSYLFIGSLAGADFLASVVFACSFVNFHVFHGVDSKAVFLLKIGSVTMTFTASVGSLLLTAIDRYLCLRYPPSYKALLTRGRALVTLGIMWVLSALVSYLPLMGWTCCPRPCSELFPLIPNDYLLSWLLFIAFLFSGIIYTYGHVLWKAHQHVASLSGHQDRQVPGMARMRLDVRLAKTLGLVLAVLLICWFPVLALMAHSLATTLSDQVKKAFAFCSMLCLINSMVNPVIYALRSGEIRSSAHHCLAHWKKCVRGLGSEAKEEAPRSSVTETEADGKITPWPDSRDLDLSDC

[10] = target: T4, Cannabinoid receptor 2; assay: SAR analysis of agonists of the Cannabinoid Receptor 2 using an Image-Based Assay - Set 3. [Related pubchem assays (depositor defined):AID2013, AID2026]; type: functional
[11] = target: T5, Coagulation factor XII (Homo sapiens, UniProt P00748); assay: Factor XIIa Dose Response Confirmation from Single Well HTS. [Related pubchem assays (depositor defined):AID701]; type: functional
T5 sequence (P00748 whole entry): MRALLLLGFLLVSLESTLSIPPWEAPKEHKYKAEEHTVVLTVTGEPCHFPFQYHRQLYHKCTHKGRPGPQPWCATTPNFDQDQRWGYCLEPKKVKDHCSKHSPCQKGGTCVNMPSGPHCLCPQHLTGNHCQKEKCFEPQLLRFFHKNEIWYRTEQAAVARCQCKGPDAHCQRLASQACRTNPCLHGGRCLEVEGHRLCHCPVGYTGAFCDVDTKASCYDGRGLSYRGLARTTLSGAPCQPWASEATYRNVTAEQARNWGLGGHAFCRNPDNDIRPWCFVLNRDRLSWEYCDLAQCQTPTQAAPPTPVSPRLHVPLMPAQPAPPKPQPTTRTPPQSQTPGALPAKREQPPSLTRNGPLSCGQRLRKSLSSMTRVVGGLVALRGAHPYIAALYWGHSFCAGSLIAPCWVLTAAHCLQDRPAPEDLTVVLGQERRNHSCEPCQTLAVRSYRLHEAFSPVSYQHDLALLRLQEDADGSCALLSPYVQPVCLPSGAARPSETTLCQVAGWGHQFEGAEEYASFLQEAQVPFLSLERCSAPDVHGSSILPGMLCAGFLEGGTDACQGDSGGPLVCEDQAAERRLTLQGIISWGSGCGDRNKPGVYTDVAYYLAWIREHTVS

[12] = target: Ion channel NompC (Danio rerio, UniProt Q7T1G6); assay: Dose response cell-based high-throughput screening assay for agonists of the transient receptor potential channel N1 (TRPN1). [Related pubchem assays (depositor defined):AID1424, AID1448]; type: functional
Ion channel NompC, sequence (Q7T1G6 whole entry): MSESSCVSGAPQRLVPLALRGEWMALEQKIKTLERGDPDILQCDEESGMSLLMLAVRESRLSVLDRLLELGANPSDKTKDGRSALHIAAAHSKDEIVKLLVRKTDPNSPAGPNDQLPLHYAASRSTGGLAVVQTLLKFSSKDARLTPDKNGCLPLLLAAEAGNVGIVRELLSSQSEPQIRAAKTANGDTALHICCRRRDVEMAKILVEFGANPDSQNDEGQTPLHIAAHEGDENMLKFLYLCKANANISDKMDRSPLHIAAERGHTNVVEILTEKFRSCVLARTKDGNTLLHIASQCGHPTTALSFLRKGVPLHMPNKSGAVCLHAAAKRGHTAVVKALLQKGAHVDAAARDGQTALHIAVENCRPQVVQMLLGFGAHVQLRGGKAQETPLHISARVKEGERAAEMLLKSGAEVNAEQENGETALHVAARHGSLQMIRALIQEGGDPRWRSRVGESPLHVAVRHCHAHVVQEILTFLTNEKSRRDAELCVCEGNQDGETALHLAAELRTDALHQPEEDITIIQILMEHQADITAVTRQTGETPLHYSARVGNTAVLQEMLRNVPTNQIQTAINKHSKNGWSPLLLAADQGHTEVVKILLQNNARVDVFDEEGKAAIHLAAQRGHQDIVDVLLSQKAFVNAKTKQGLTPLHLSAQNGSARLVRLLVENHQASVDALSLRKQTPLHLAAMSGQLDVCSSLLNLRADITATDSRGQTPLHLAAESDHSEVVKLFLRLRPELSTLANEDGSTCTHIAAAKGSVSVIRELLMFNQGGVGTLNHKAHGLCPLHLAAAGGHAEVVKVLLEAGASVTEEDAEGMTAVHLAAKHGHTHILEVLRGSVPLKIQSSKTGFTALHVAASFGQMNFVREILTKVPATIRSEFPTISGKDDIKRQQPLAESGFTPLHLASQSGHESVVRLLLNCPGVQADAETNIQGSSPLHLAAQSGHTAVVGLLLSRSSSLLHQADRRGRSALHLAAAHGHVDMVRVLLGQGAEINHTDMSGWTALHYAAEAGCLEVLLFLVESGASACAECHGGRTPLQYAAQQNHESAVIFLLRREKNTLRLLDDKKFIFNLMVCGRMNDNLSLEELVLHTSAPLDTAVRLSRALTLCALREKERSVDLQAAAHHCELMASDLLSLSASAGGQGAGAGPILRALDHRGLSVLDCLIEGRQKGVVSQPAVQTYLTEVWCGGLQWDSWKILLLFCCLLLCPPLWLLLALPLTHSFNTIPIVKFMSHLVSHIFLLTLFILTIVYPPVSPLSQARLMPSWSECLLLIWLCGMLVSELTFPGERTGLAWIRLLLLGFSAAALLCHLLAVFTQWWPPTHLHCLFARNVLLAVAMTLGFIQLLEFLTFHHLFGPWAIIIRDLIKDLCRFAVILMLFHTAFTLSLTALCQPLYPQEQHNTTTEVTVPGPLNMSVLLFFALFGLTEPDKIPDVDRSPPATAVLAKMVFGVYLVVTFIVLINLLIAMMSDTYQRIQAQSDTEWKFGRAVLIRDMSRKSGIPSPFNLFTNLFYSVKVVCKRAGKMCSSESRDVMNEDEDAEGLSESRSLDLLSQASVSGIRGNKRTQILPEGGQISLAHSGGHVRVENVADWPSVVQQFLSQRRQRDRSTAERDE

[13] = target: T6, Mucolipin-3 (Homo sapiens, UniProt Q8TDD5); assay: Fluorescence counterscreen assay for […] agonists: dose response cell-based high-throughput screening assay to identify agonists of the transient receptor potential channel ML3 (TRPML3). [Related pubchem assays: 1424, 1448 ]; type: functional
T6 sequence (Q8TDD5 whole entry): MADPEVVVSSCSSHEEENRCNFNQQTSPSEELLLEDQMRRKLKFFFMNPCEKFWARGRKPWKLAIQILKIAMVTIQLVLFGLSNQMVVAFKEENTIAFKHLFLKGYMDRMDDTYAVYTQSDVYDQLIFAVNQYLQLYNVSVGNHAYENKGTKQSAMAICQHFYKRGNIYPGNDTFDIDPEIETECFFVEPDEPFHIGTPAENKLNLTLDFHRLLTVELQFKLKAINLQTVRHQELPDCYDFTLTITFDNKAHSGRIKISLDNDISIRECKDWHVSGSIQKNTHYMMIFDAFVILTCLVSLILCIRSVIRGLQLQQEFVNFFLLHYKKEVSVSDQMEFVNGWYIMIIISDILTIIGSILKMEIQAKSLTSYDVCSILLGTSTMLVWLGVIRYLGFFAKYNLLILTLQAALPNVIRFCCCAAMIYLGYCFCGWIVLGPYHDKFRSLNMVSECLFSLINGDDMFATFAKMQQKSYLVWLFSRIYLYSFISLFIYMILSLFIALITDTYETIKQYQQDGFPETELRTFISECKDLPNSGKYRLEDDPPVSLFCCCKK

[14] = target: T7, Heat shock factor protein 1 (Mus musculus, UniProt P38532); assay: HSF1 potentiators in luciferase reporter cells, confirmation, cell-based, NIH3T3, luminescence, dose retest (AID 435004); type: functional;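 further: stress induced by proteasome inhibitor MG132 added 30 min after compound; luciferase reporter driven by HSF1 response element in NIH3T3 cells; actives raise luminescence as potentiators of the MG132 stress response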
T7 sequence (P38532 whole entry): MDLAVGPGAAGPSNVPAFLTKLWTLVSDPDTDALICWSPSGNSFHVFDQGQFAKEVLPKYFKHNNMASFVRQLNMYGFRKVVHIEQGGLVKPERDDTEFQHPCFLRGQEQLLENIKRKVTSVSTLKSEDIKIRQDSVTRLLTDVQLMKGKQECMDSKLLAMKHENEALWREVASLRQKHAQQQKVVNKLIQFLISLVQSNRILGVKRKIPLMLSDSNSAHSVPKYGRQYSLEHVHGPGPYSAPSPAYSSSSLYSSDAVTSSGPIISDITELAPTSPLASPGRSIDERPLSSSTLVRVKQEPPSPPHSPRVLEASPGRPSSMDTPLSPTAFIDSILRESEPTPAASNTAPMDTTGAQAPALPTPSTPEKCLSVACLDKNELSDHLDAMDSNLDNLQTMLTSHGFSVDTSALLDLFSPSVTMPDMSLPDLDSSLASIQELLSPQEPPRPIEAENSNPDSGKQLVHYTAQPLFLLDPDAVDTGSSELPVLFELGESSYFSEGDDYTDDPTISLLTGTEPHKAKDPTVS

[15] = target: UDP-galactopyranose mutase (Mycobacterium tuberculosis, UniProt P9WIQ1); assay: Inhibitors of Mycobacterium tuberculosis UDP-galactopyranose mutase (UGM) enzyme Measured in Biochemical System Using Plate Reader - 2105-02_Inhibitor_Dose_CherryPick_Activity. [Related pubchem assays (depositor defined):AID504439]
[16] = cells; type: functional
[17] = tested on: BJ; assay: cytotoxicity toward Ras-transformed BJeLR fibroblasts, dose response, cell-based, alamar blue fluorescence, cherrypicked samples (AID 2631); type: functional; settings: Homo sapiens;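 further: confirmatory dose-response assay in RAS-dependent BJ fibroblasts engineered with TERT, LT and ST, with cytotoxicity read by fluorescence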
[18] = target: Kappa-type opioid receptor (Homo sapiens, UniProt P41145); assay: SAR analysis of small molecule agonists of the kappa opioid receptor via a luminescent beta-arrestin assay - Set 3. [Related pubchem assays (depositor defined):AID1777, AID1785, AID1786, AID1966, AID2133, AID2136, AID2284, AID2500]; type: functional
Kappa-type opioid receptor, sequence (P41145 whole entry): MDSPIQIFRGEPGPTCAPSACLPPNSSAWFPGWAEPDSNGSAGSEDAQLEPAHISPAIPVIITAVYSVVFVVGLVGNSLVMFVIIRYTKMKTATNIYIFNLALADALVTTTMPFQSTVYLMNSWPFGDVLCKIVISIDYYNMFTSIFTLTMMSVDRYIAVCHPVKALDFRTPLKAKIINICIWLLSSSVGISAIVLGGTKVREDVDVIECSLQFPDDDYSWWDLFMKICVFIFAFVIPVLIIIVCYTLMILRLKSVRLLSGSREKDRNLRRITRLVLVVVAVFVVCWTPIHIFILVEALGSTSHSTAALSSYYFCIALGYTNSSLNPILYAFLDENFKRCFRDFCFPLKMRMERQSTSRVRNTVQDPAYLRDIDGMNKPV

Glucose-6-phosphate 1-dehydrogenase, sequence (P11413 whole entry): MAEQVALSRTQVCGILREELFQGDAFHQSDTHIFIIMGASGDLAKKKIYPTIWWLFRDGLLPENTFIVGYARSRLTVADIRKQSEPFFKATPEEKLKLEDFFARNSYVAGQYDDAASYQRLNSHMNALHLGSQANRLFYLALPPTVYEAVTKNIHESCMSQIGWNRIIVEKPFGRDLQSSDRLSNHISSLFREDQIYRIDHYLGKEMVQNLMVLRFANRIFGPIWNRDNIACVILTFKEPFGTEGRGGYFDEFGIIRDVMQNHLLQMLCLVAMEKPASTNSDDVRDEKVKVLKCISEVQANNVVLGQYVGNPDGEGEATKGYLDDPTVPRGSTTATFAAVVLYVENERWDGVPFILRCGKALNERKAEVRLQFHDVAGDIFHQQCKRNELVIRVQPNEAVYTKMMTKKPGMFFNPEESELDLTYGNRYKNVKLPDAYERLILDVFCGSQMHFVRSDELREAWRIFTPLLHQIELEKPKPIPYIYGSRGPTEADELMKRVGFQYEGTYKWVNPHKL

Question: Which results are given for `O=C(Nc1ccc(N2CCCC2)cc1)c1cccc(-c2cc3ccccc3oc2=O)c1`?
Answer: IC50 [1]: > 80 µM (inactive); EC50 [2]: 13.6 µM (active); EC50 [3]: > 80 µM (inactive)

Question: Which results are given for `Cc1nc(N2CCN(C(=O)c3cccs3)CC2)c2c3c(sc2n1)CCCC3`?
Answer: EC50 [4]: > 32 µM (inactive); EC50 [5]: > 32 µM (inactive); IC50 [6]: > 32 µM (inactive); IC50 [7]: 3.94 µM (active); IC50 [8]: 4.13 µM (active); IC50 [9]: > 32 µM (inactive); EC50 [10]: > 32 µM (inactive)

Question: Which EC50 [4] does the source give for `COc1ccc(-n2cc3c(-c4cccc(Br)c4)nnc(C)c3n2)cc1` here?
Answer: > 32 µM (inactive)

Question: What about the EC50 [5] of the same compound?
Answer: > 32 µM (inactive)

Question: And the IC50 [6]?
Answer: > 32 µM (inactive)

Question: And the IC50 [7]?
Answer: 0.946 µM (active)

Question: And the IC50 [8]?
Answer: 8.04 µM (active)

Question: What about the IC50 [9] of the same compound?
Answer: 5.4 µM (active)

Question: And the EC50 [10]?
Answer: > 32 µM (inactive)

Question: With `COc1cc(OC)cc(-c2nnc(SCc3cccc(C(=O)O)c3)o2)c1` as the compound, how does the IC50 [11] read?
Answer: > 50 µM (inactive)

Question: With `Cc1cc2nc3c(=O)n(CCc4ccccc4)c(=O)[nH]c3nc2cc1N` as the compound, how does the EC50 [12] read?
Answer: 3.55 µM (active)

Question: What about the EC50 [13] of the same compound?
Answer: 6.23 µM (active)

Question: What about the EC50 [14] of the same compound?
Answer: > 260 µM (inactive)

Question: And the AC50 [15]?
Answer: 2.29 µM (active)

Question: For `CCOC(=O)Cn1c2ccc(F)cc2c2nc(C)sc21`, which EC50 [2] is on record?
Answer: 59.1 µM (inactive)

Question: And the EC50 [3]?
Answer: 56.2 µM (inactive)

Question: What about the IC50 [16] of the same compound?
Answer: 14.2 µM (active)

Question: Which EC50 [12] does the source give for `COc1ccc2[nH]c3c(NCCC4=CCCCC4)ncnc3c2c1` here?
Answer: > 29.9 µM (inactive)

Question: What about the EC50 [13] of the same compound?
Answer: > 29.9 µM (not active)

Question: What about the EC50 [17] of the same compound?
Answer: > 133 µM (inactive)

Question: For `Brc1ccc(CSc2nnc(-c3ccccn3)n2Cc2ccccc2)cc1`, which EC50 [18] is on record?
Answer: 4.06 µM (active)

Question: For `O=C(c1cn(-c2ccccc2)nc1-c1ccncc1)n1nnc2ccccc21`, which IC50 [11] is on record?
Answer: 0.973 µM (active)
